Where a SMILES comes first, the peptide text is derived from it. [ ]: non-standard residue; d: D form. The star is where a group is joined. X1 = Cc1ccc(Nc2ncc3c(n2)N(C)C(=O)N(c2cc(C(=O)*)ccc2C)C3)cn1; Aib = CC(C)(N)C(=O)O
Tests used:
Test in all cases: kinase selectivity profiling
Assay type in all cases: biochemical
Details in all cases: 10µM ATP, read-out: % inhibition (relative to DMSO)
ERN1/IRE1 = target: T1, ERN1/IRE1 (Homo sapiens, UniProt O75460)
T1 construct: purchased Reaction Biology Corp
T1 sequence (O75460 19-977): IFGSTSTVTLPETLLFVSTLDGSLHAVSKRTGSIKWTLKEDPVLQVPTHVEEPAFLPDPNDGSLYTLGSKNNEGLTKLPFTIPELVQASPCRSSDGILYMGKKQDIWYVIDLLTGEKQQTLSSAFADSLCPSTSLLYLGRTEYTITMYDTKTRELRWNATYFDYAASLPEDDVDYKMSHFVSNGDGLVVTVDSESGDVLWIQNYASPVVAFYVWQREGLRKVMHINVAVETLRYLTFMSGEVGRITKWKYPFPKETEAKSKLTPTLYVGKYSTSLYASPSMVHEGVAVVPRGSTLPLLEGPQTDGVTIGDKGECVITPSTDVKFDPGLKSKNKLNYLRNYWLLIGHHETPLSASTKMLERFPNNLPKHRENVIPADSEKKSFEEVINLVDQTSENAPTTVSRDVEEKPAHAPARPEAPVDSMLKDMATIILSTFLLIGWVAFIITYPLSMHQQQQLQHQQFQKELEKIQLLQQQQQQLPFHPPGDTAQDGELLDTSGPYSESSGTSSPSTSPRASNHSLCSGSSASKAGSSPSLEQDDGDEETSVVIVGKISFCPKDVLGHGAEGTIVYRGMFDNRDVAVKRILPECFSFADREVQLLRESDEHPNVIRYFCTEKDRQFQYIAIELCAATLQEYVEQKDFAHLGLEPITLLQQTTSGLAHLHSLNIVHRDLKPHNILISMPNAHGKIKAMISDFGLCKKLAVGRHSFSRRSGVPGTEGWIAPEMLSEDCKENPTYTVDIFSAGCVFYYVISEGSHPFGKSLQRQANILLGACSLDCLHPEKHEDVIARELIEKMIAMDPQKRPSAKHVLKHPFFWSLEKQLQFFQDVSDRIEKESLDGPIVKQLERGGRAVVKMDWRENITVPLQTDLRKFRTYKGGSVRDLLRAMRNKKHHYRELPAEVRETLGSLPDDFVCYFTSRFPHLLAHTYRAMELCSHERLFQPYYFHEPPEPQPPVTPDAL
Experimental: (§1) Full panel kinase profiling and kinase IC50 measurement were performed by using Reaction Biology Corp. (San Diego, USA).

DMPK = target: T2, DMPK (Homo sapiens, UniProt Q09013)
T2 construct: purchased Reaction Biology Corp
Experimental: as §1

TAOK1 = target: T3, TAOK1 (Homo sapiens, UniProt Q7L7X3)
T3 construct: purchased Reaction Biology Corp
Experimental: as §1

BTK = target: T4, BTK (Homo sapiens, UniProt Q06187)
T4 construct: purchased Reaction Biology Corp
Experimental: as §1

TRKA = target: T5, TRKA (Homo sapiens, UniProt P04629)
T5 construct: purchased Reaction Biology Corp
Experimental: as §1

CK1epsilon = target: T6, CK1epsilon (Homo sapiens, UniProt P49674)
T6 construct: purchased Reaction Biology Corp
Experimental: as §1

SIK3 = target: T7, SIK3 (Homo sapiens, UniProt Q9Y2K2)
T7 construct: purchased Reaction Biology Corp
Experimental: as §1

DYRK2 = target: T8, DYRK2 (Homo sapiens, UniProt Q92630)
T8 construct: purchased Reaction Biology Corp
Experimental: as §1

SGK1 = target: T9, SGK1 (Homo sapiens, UniProt O00141)
T9 construct: purchased Reaction Biology Corp
Experimental: as §1

EPHA7 = target: T10, EPHA7 (Homo sapiens, UniProt Q15375)
T10 construct: purchased Reaction Biology Corp
T10 sequence (Q15375 28-998): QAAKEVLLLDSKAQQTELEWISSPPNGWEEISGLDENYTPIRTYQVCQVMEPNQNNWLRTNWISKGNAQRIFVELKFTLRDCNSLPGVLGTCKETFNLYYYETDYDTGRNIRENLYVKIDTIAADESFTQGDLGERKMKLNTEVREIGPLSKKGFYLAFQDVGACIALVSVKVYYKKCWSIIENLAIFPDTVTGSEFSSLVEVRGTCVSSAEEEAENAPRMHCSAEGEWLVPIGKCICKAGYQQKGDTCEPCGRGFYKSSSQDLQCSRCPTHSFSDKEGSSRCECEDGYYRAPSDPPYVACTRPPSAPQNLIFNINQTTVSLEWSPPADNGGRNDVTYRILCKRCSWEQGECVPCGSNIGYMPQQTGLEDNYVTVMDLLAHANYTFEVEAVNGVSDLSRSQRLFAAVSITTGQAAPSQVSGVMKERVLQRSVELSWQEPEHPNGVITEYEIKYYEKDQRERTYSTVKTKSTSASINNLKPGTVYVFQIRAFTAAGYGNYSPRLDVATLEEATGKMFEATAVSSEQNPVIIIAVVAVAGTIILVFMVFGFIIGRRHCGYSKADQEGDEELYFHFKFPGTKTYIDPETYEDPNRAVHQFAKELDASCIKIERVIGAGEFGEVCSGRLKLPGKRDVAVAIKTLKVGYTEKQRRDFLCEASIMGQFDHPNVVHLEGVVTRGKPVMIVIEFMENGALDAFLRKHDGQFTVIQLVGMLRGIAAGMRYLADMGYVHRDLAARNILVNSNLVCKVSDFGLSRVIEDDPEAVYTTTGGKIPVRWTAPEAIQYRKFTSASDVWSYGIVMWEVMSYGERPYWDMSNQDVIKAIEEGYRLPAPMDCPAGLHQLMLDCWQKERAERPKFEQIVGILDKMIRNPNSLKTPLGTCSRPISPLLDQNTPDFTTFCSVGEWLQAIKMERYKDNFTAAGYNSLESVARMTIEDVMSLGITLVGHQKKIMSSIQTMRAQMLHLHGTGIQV
Experimental: as §1

ALK1/ACVRL1 = target: T11, ALK1/ACVRL1 (Homo sapiens, UniProt P37023)
T11 construct: purchased Reaction Biology Corp
Experimental: as §1

HGK/MAP4K4 = target: T12, HGK/MAP4K4 (Homo sapiens, UniProt O95819)
T12 construct: purchased Reaction Biology Corp
Experimental: as §1

CDK4/cyclin D1 = target: T13, CDK4/cyclin D1 (Homo sapiens, UniProt P11802)
T13 construct: purchased Reaction Biology Corp
Experimental: as §1

CAMK1a = target: T14, CAMK1a (Homo sapiens, UniProt Q14012)
T14 construct: purchased Reaction Biology Corp
Experimental: as §1

RIPK5 = target: T15, RIPK5 (Homo sapiens, UniProt Q6XUX3)
T15 construct: purchased Reaction Biology Corp
Experimental: as §1

ALK3/BMPR1A = target: T16, ALK3/BMPR1A (Homo sapiens, UniProt P36894)
T16 construct: purchased Reaction Biology Corp
Experimental: as §1

CDK8/cyclin C = target: T17, CDK8/cyclin C (Homo sapiens, UniProt P49336)
T17 construct: purchased Reaction Biology Corp
Experimental: as §1

STK33 = target: T18, STK33 (Homo sapiens, UniProt Q9BYT3)
T18 construct: purchased Reaction Biology Corp
T18 sequence (Q9BYT3 whole entry): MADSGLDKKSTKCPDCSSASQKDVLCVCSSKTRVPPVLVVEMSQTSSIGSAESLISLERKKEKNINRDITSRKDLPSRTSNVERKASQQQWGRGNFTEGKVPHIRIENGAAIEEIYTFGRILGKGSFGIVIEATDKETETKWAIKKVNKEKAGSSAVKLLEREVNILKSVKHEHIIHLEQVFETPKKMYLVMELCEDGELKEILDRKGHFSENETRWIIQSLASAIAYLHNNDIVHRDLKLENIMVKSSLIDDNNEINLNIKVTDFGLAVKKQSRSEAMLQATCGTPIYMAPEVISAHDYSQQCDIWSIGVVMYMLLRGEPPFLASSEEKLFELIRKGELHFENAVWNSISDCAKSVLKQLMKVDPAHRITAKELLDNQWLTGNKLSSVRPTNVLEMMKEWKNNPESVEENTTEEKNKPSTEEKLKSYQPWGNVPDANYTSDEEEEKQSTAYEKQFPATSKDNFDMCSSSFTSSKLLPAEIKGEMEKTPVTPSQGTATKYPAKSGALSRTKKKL
Experimental: as §1

PLK2 = target: T19, PLK2 (Homo sapiens, UniProt Q9NYY3)
T19 construct: purchased Reaction Biology Corp
Experimental: as §1

MEK3 = target: T20, MEK3 (Homo sapiens, UniProt P46734)
T20 construct: purchased Reaction Biology Corp
Experimental: as §1

FYN = target: T21, FYN (Homo sapiens, UniProt P06241)
T21 construct: purchased Reaction Biology Corp
Experimental: as §1

PKG1a = target: T22, PKG1a (Homo sapiens, UniProt Q13976)
T22 construct: purchased Reaction Biology Corp
Experimental: as §1

MAK = target: T23, MAK (Homo sapiens, UniProt P20794)
T23 construct: purchased Reaction Biology Corp
Experimental: as §1

NEK11 = target: T24, NEK11 (Homo sapiens, UniProt Q8NG66)
T24 construct: purchased Reaction Biology Corp
Experimental: as §1

CK1a1L = target: T25, CK1a1L (Homo sapiens, UniProt Q8N752)
T25 construct: purchased Reaction Biology Corp
Experimental: as §1

MKK6 = target: T26, MKK6 (Homo sapiens, UniProt P52564)
T26 construct: purchased Reaction Biology Corp
Experimental: as §1

PAK6 = target: T27, PAK6 (Homo sapiens, UniProt Q9NQU5)
T27 construct: purchased Reaction Biology Corp
Experimental: as §1

RSK1 = target: T28, RSK1 (Homo sapiens, UniProt Q15418)
T28 construct: purchased Reaction Biology Corp
Experimental: as §1

STK16 = target: T29, STK16 (Homo sapiens, UniProt O75716)
T29 construct: purchased Reaction Biology Corp
Experimental: as §1

YES/YES1 = target: T30, YES/YES1 (Homo sapiens, UniProt P07947)
T30 construct: purchased Reaction Biology Corp
T30 sequence (P07947 whole entry): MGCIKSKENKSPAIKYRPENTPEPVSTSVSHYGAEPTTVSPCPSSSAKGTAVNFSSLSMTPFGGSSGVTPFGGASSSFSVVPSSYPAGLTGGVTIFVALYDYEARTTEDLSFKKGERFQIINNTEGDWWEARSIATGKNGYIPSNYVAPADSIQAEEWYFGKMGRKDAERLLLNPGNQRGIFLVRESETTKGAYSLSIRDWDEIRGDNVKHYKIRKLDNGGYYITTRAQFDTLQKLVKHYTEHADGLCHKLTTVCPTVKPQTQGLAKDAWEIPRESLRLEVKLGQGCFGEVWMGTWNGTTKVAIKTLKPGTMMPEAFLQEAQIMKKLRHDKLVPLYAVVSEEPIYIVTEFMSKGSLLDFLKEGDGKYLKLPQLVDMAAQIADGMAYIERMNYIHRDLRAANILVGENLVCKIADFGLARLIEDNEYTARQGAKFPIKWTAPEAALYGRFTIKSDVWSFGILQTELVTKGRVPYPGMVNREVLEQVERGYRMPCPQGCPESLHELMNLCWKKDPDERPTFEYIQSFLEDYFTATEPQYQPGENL
Experimental: as §1

FRK/PTK5 = target: T31, FRK/PTK5 (Homo sapiens, UniProt P42685)
T31 construct: purchased Reaction Biology Corp
T31 sequence (P42685 whole entry): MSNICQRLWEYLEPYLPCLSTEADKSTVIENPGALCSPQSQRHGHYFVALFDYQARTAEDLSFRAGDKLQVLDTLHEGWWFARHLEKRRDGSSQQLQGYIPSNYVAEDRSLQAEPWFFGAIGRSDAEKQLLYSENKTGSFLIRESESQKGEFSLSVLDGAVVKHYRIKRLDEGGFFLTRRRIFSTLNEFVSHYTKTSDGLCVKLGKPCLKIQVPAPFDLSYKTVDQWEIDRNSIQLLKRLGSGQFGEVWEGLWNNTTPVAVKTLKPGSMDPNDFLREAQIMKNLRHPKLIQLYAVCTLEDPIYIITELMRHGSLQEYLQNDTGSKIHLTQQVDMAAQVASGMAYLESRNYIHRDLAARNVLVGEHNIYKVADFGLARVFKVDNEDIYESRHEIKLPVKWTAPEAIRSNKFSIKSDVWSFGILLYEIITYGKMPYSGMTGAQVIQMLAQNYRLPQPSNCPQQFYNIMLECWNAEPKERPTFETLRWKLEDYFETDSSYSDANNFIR
Experimental: as §1

NEK4 = target: T32, NEK4 (Homo sapiens, UniProt P51957)
T32 construct: purchased Reaction Biology Corp
Experimental: as §1

GRK2 = target: T33, GRK2 (Homo sapiens, UniProt P25098)
T33 construct: purchased Reaction Biology Corp
T33 sequence (P25098 whole entry): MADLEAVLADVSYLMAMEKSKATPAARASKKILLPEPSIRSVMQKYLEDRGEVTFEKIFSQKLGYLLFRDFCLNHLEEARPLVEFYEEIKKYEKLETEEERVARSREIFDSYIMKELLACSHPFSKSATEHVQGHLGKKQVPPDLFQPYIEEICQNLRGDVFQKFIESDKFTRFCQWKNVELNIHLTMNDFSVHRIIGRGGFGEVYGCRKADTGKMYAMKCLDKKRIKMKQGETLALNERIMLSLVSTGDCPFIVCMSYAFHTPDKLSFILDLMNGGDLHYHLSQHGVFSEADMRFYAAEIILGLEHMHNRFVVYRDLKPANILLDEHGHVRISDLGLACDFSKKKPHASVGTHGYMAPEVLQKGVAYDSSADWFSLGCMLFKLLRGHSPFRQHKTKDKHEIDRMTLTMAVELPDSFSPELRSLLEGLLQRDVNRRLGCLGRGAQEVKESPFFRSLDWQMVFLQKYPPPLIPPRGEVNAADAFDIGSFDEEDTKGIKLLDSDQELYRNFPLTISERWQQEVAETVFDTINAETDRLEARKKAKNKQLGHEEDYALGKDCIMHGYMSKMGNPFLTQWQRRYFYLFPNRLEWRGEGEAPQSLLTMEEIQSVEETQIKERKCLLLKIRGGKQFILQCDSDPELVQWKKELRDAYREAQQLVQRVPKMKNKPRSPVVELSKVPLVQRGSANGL
Experimental: as §1

ZAK/MLTK = target: T34, ZAK/MLTK (Homo sapiens, UniProt Q9NYL2)
T34 construct: purchased Reaction Biology Corp
T34 sequence (Q9NYL2 whole entry): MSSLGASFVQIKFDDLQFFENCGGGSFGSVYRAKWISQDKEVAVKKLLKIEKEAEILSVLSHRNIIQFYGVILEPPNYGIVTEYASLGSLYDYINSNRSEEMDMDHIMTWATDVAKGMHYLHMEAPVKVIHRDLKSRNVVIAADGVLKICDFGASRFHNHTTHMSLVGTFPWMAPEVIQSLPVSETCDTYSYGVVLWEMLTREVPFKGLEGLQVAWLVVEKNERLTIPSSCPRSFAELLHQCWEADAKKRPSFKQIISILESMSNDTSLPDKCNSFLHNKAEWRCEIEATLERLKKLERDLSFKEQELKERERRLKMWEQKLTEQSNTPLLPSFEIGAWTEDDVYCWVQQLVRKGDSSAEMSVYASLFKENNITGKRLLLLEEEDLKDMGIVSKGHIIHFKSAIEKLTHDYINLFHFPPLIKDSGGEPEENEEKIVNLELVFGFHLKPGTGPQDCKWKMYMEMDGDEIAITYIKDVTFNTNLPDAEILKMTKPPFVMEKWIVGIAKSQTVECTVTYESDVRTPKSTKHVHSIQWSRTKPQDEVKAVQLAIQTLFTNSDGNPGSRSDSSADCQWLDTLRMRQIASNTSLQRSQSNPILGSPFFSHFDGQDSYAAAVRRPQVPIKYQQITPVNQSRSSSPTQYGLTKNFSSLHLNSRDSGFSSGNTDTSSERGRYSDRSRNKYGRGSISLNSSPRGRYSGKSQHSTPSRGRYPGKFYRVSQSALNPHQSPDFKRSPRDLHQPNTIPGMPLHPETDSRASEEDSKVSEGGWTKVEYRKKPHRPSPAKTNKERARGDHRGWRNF
Experimental: as §1

DAPK1 = target: T35, DAPK1 (Homo sapiens, UniProt P53355)
T35 construct: purchased Reaction Biology Corp
Experimental: as §1

CAMK1b = target: T36, CAMK1b (Homo sapiens, UniProt Q6P2M8)
T36 construct: purchased Reaction Biology Corp
Experimental: as §1

TRKB = target: T37, TRKB (Homo sapiens, UniProt Q16620)
T37 construct: purchased Reaction Biology Corp
Experimental: as §1

MINK/MINK1 = target: T38, MINK/MINK1 (Homo sapiens, UniProt Q8N4C8)
T38 construct: purchased Reaction Biology Corp
Experimental: as §1

PKCmu/PRKD1 = target: T39, PKCmu/PRKD1 (Homo sapiens, UniProt Q15139)
T39 construct: purchased Reaction Biology Corp
Experimental: as §1

TGFBR2 = target: T40, TGFBR2 (Homo sapiens, UniProt P37173)
T40 construct: purchased Reaction Biology Corp
Experimental: as §1

VRK2 = target: T41, VRK2 (Homo sapiens, UniProt Q86Y07)
T41 construct: purchased Reaction Biology Corp
Experimental: as §1

WNK1 = target: T42, WNK1 (Homo sapiens, UniProt Q9H4A3)
T42 construct: purchased Reaction Biology Corp
Experimental: as §1

SNRK = target: T43, SNRK (Homo sapiens, UniProt Q9NRH2)
T43 construct: purchased Reaction Biology Corp
Experimental: as §1

What does the source list for `Cc1ccc(Nc2ncc3c(n2)N(C)C(=O)N(c2cc(C(=O)N[C@H](C(=O)N4CCC[C@H]4C(=O)NC(C)(C)C(=O)N[C@@H](CC(C)C)C(=O)N(C)C)C(C)C)ccc2C)C3)cn1` [7a, (S)-N-(1-(((S)-1-(dimethylamino)-4-methyl-1-oxopentan-2-yl)amino)-2-methyl-1-oxopropan-2-yl)-1-((4-methyl-3-(1-methyl-7-((6-methylpyridin-3-yl)amino)-2-oxo-1,4-dihydropyrimido[4,5-d]pyrimidin-3(2H)-yl)benzoyl)-L-valyl)pyrrolidine-2-carboxamide] (X1-VP[Aib]L-NMe2)?
inhibition at 1 µM (ERN1/IRE1): 5%; inhibition at 1 µM (DMPK): 0%; inhibition at 1 µM (TAOK1): 0%; inhibition at 1 µM (BTK): 6%; inhibition at 1 µM (TRKA): 0%; inhibition at 1 µM (CK1epsilon): 0%; inhibition at 1 µM (SIK3): 12%; inhibition at 1 µM (DYRK2): 8%; inhibition at 1 µM (SGK1): 0%; inhibition at 1 µM (EPHA7): 2%; inhibition at 1 µM (ALK1/ACVRL1): 17%; inhibition at 1 µM (HGK/MAP4K4): 0%; inhibition at 1 µM (CDK4/cyclin D1): 0%; inhibition at 1 µM (CAMK1a): 1%; inhibition at 1 µM (RIPK5): 0%; inhibition at 1 µM (ALK3/BMPR1A): 3%; inhibition at 1 µM (CDK8/cyclin C): 2%; inhibition at 1 µM (STK33): 0%; inhibition at 1 µM (PLK2): 0%; inhibition at 1 µM (MEK3): 0%; inhibition at 1 µM (FYN): 21%; inhibition at 1 µM (PKG1a): 0%; inhibition at 1 µM (MAK): 0%; inhibition at 1 µM (NEK11): 1%; inhibition at 1 µM (CK1a1L): 0%; inhibition at 1 µM (MKK6): 8%; inhibition at 1 µM (PAK6): 0%; inhibition at 1 µM (RSK1): 17%; inhibition at 1 µM (STK16): 0%; inhibition at 1 µM (YES/YES1): 62%; inhibition at 1 µM (FRK/PTK5): 15%; inhibition at 1 µM (NEK4): 0%; inhibition at 1 µM (GRK2): 0%; inhibition at 1 µM (ZAK/MLTK): 14%; inhibition at 1 µM (DAPK1): 0%; inhibition at 1 µM (CAMK1b): 15%; inhibition at 1 µM (TRKB): 5%; inhibition at 1 µM (MINK/MINK1): 2%; inhibition at 1 µM (PKCmu/PRKD1): 0%; inhibition at 1 µM (TGFBR2): 0%; inhibition at 1 µM (VRK2): 0%; inhibition at 1 µM (WNK1): 0%; inhibition at 1 µM (SNRK): 9%
